Earlier results, collected in patent US7204996B2, “Method of cancer treatment” (Board of Regents, The University of Texas System, priority 1999, dated 2007).

Experiments:
[1] = test system: MDR overexpressing HL-60 cells; details: for resistance index decrease on coincubation with verapamil: in the presence of verapamil

Row | solubility in water solutions | Structure (SMILES) | cytotoxicity ([1]; MDR overexpressing HL-60 cells) | resistance index ([1]; compared with idarubicin and doxorubicin) | resistance index decrease on coincubation with verapamil [1]
1 | completely insoluble | C[C@@H]1O[C@@H](O[C@H]2C[C@](O)(C(=O)CO)Cc3c(O)c4c(c(O)c32)C(=O)c2ccccc2C4=O)[C@H](I)[C@H](O)[C@H]1O [Annamycin, (7S,9S)-4-demethoxy-7-O-(2,6-dideoxy-2-iodo-alphamannopryanosyl) adriamycinone] | cytotoxic | lower than that of idarubicin and doxorubicin | did not change
2 | – | COc1cccc2c1C(=O)c1c(O)c3c(c(O)c1C2=O)C[C@@](O)(C(=O)CO)C[C@@H]3O[C@H]1C[C@H](N)[C@H](O)[C@H](C)O1 [doxorubicin, reference compound] | – | – | 4.5 fold
3 | – | CC(=O)[C@]1(O)Cc2c(O)c3c(c(O)c2[C@@H](O[C@H]2C[C@H](N)[C@H](O)[C@H](C)O2)C1)C(=O)c1ccccc1C3=O [idarubicin, reference compound] | – | – | 2 fold
